One test deals with T1, BmCRT (calreticulin) (Bombyx mori, UniProt Q7Z1E6).
T1 construct: gene crt
T1 sequence (Q7Z1E6 20-398): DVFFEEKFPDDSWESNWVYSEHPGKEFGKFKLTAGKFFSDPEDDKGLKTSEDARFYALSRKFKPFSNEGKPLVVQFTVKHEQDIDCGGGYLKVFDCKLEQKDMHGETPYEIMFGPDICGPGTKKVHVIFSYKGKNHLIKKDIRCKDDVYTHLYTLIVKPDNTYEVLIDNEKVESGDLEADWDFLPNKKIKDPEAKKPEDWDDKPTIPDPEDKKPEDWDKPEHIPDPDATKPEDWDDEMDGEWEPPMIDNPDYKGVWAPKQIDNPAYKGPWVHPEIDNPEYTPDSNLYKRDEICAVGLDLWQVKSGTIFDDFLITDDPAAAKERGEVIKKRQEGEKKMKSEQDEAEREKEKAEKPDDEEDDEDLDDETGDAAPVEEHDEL
Nature of the test: SPR (Biacore 8K), multi-cycle kinetics. Format: binding.

The target in test [1] is BmPDIA5 (protein disulfide isomerase A5). Nature of the test: SPR (Biacore 8K), multi-cycle kinetics. Format: binding, Bombyx mori. The note with it: 1 × PBSP, 5% DMSO; DA 15.6-250 µmol/L.

Square brackets hold non-standard residues; d marks the D form. Peptide text beside a SMILES is read from it. dLac(3-vinyl) = C=CC[C@@H](O)C(=O)O; NMeV = CN[C@H](C(=O)O)C(C)C; NMeA = CN[C@@H](C)C(=O)O; βAla = NCCC(=O)O

As for `C=CC[C@H]1OC(=O)CCNC(=O)[C@H](C)N(C)C(=O)[C@H](C(C)C)N(C)C(=O)[C@H]([C@@H](C)CC)NC(=O)[C@@H]2CCCN2C1=O` [DA, Destruxin A] (cyclo([dLac(3-vinyl)]PI[NMeV][NMeA][βAla])), the Kd (usually a measure of binding affinity in units of concentration) on BmCRT (calreticulin) was 198 µM; in test [1], 92.6 µM.

(Values after PMC9698323, “Interaction of Destruxin A with Three Silkworm Proteins: BmCRT, BmDPP3, and BmPDIA5” (Molecules, 2022).)
